Measurements taken from PubChem BioAssay AID256 (DTP/NCI, 2004).
Several values for one entry are separate records, joined by “and”; a condition that tells them apart may be missing. Equal values may be shown once. Toxic doses and inconclusive results are not listed.

System: CD2F1 mice, L1210 leukemia ip, survival T/C
Assay: NCI In Vivo Anticancer Drug Screen. Data for tumor model L1210 Leukemia (intraperitoneal) in CD2F1 (CDF1) mice
Details: higher = longer survival
Outline: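 Mice carrying a transplanted tumor received test compound or vehicle alone. The value is the measurement in the treated group divided by that in the vehicle-treated control group.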

[1] = endpoint: mean survival time, dose: 100.0 mg/kg/injection, schedule: Q01DX001 (ip), vehicle: saline with Tween-80
[2] = endpoint: mean survival time, dose: 200.0 mg/kg/injection, schedule: Q01DX001 (ip), vehicle: saline with Tween-80
[3] = endpoint: mean survival time, dose: 400.0 mg/kg/injection, schedule: Q01DX001 (ip), vehicle: saline with Tween-80

SMILES: O=C(N/N=C/c1ccc(Cl)c(Cl)c1)c1ccccc1
- T/C (endpoint: mean survival time, dose: 100.0 mg/kg/injection, schedule: Q01DX009 (ip), vehicle: Klucel (hydroxypropylcellulose) (HPC)): 94 % of control
- T/C (endpoint: mean survival time, dose: 100.0 mg/kg/injection, schedule: Q04DX003 (ip), vehicle: Klucel (hydroxypropylcellulose) (HPC)): 96 % of control
- T/C (endpoint: mean survival time, dose: 200.0 mg/kg/injection, schedule: Q01DX009 (ip), vehicle: Klucel (hydroxypropylcellulose) (HPC)): 90 % of control
- T/C (endpoint: mean survival time, dose: 200.0 mg/kg/injection, schedule: Q04DX003 (ip), vehicle: Klucel (hydroxypropylcellulose) (HPC)): 88 % of control
- T/C (endpoint: mean survival time, dose: 400.0 mg/kg/injection, schedule: Q01DX009 (ip), vehicle: Klucel (hydroxypropylcellulose) (HPC)): 89 % of control
- T/C (endpoint: mean survival time, dose: 400.0 mg/kg/injection, schedule: Q04DX003 (ip), vehicle: Klucel (hydroxypropylcellulose) (HPC)): 97 % of control

SMILES: O=c1nc(Oc2ccccc2)nc2ncccn12
- T/C (endpoint: mean survival time, dose: 3.12 mg/kg/injection, schedule: Q01DX009 (ip), vehicle: saline with Tween-80): 100 % of control and 108 % of control
- T/C (endpoint: mean survival time, dose: 6.25 mg/kg/injection, schedule: Q01DX009 (ip), vehicle: saline with Tween-80): 100 % of control and 101 % of control
- T/C (endpoint: mean survival time, dose: 12.5 mg/kg/injection, schedule: Q01DX009 (ip), vehicle: saline with Tween-80): 97 % of control and 101 % of control
- T/C (endpoint: mean survival time, dose: 25.0 mg/kg/injection, schedule: Q01DX009 (ip), vehicle: saline with Tween-80): 98 % of control and 99 % of control
- T/C (endpoint: mean survival time, dose: 50.0 mg/kg/injection, schedule: Q01DX009 (ip), vehicle: saline with Tween-80): 97 % of control and 102 % of control

SMILES: O=NN(CCCl)C(=O)NC1[C@H](O)CCC[C@@H]1O (some centres not stated)
- T/C (endpoint: median survival time, dose: 0.63 mg/kg/injection, schedule: Q01DX009 (ip), vehicle: saline): 167 % of control
- T/C (endpoint: median survival time, dose: 1.25 mg/kg/injection, schedule: Q01DX009 (ip), vehicle: saline): 229 % of control and 108 % of control
- T/C (endpoint: median survival time, dose: 2.5 mg/kg/injection, schedule: Q01DX009 (ip), vehicle: saline): 348 % of control and 365 % of control
- T/C (endpoint: median survival time, dose: 5.0 mg/kg/injection, schedule: Q01DX009 (ip), vehicle: saline): 348 % of control and 365 % of control
- T/C (endpoint: median survival time, dose: 10.0 mg/kg/injection, schedule: Q01DX009 (ip), vehicle: saline): 195 % of control and 218 % of control
- T/C (endpoint: median survival time, dose: 20.0 mg/kg/injection, schedule: Q01DX009 (ip), vehicle: saline): 93 % of control and 101 % of control

SMILES: CN(C)CCCNc1cccc2c1C(=O)c1cccc(NCCCN(C)C)c1C2=O
- T/C (endpoint: mean survival time, dose: 8.0 mg/kg/injection, schedule: Q01DX009 (ip), vehicle: acid diluted with saline): 102 % of control
- T/C (endpoint: mean survival time, dose: 16.0 mg/kg/injection, schedule: Q01DX009 (ip), vehicle: acid diluted with saline): 102 % of control
- T/C (endpoint: mean survival time, dose: 32.0 mg/kg/injection, schedule: Q01DX009 (ip), vehicle: acid diluted with saline): 106 % of control
- T/C (endpoint: mean survival time, dose: 64.0 mg/kg/injection, schedule: Q01DX009 (ip), vehicle: acid diluted with saline): 100 % of control

SMILES: CCCCCCCCCCCC(=O)CCCC
- T/C (endpoint: mean survival time, dose: 100.0 mg/kg/injection, schedule: Q01DX009 (ip), vehicle: other): 98 % of control
- T/C (endpoint: mean survival time, dose: 100.0 mg/kg/injection, schedule: Q04DX003 (ip), vehicle: other): 102 % of control
- T/C (endpoint: mean survival time, dose: 200.0 mg/kg/injection, schedule: Q01DX009 (ip), vehicle: other): 104 % of control
- T/C (endpoint: mean survival time, dose: 200.0 mg/kg/injection, schedule: Q04DX003 (ip), vehicle: other): 91 % of control
- T/C (endpoint: mean survival time, dose: 400.0 mg/kg/injection, schedule: Q01DX009 (ip), vehicle: other): 106 % of control
- T/C (endpoint: mean survival time, dose: 400.0 mg/kg/injection, schedule: Q04DX003 (ip), vehicle: other): 97 % of control

SMILES: CCOC(=O)CC(=O)c1ccc(C(=O)CC(=O)OCC)cc1
- T/C [1]: 89 % of control
- T/C [2]: 89 % of control
- T/C [3]: 89 % of control

SMILES: CCOC(=O)/C=C/C(=O)[O-].CCOC(=O)/C=C/C(=O)[O-].NC1CCCCC1N.[Pt+4]
- T/C (endpoint: median survival time, dose: 3.12 mg/kg/injection, schedule: Q04DX003 (ip), vehicle: saline with Tween-80): 101 % of control and 103 % of control
- T/C (endpoint: median survival time, dose: 6.25 mg/kg/injection, schedule: Q04DX003 (ip), vehicle: saline with Tween-80): 103 % of control and 108 % of control
- T/C (endpoint: median survival time, dose: 12.5 mg/kg/injection, schedule: Q04DX003 (ip), vehicle: saline with Tween-80): 113 % of control and 112 % of control
- T/C (endpoint: median survival time, dose: 25.0 mg/kg/injection, schedule: Q04DX003 (ip), vehicle: saline with Tween-80): 123 % of control
- T/C (endpoint: median survival time, dose: 100.0 mg/kg/injection, schedule: Q04DX003 (ip), vehicle: saline with Tween-80): 164 % of control
- T/C (endpoint: median survival time, dose: 200.0 mg/kg/injection, schedule: Q04DX003 (ip), vehicle: saline with Tween-80): 166 % of control and 333 % of control

SMILES: O=C1/C(=C\c2ccccc2)C2CCC(C2)/C1=C\c1ccccc1
- T/C [1]: 91 % of control
- T/C [2]: 88 % of control
- T/C [3]: 97 % of control

SMILES: CC(=O)c1cc(-c2ccc(C)cc2)nc2c(C)cc(C)cc12
- T/C (endpoint: mean survival time, dose: 100.0 mg/kg/injection, schedule: Q04DX003 (ip), vehicle: saline with Tween-80): 92 % of control
- T/C (endpoint: mean survival time, dose: 200.0 mg/kg/injection, schedule: Q04DX003 (ip), vehicle: saline with Tween-80): 86 % of control
- T/C (endpoint: mean survival time, dose: 400.0 mg/kg/injection, schedule: Q04DX003 (ip), vehicle: saline with Tween-80): 92 % of control
